Laboratory results: the supplement of paper PMC5844555

Tests used:
Experiment in all cases: 3' UTR reporter interaction score (median-centred robust z-score of log2 firefly/Renilla activity); higher = less repression of the 3' UTR reporter
Details in all cases: HEK293T; 48 h
HRAS = tested on: HRAS
In short: (§1)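 HEK293T cells (10,000/well, 96-well plates) were co-transfected using DharmaFECT Duo with 100 ng firefly luc2P reporter carrying the gene's 3' UTR, 20 ng Renilla pRL-TK control and 2.5 pmol miRNA mimic. Dual-luciferase activities were read 48 h post-transfection. The interaction score is the log-transformed firefly/Renilla ratio as a per-plate robust z-score (median, median absolute deviation), median-centred per miRNA and averaged over at least two independent screens; more negative indicates interaction.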

RB1 = tested on: RB1
In short: as §1

MYT1L = tested on: MYT1L
In short: as §1

BRCA2 = tested on: BRCA2
In short: as §1

ZEB2 = tested on: ZEB2
In short: as §1

TP53 = tested on: TP53
In short: as §1

MYC = tested on: MYC
In short: as §1

PHF6 = tested on: PHF6
In short: as §1

FBXW7 = tested on: FBXW7
In short: as §1

EZH2 = tested on: EZH2
In short: as §1

NOTCH1 = tested on: NOTCH1
In short: as §1

PHOX2B = tested on: PHOX2B
In short: as §1

MYB = tested on: MYB
In short: as §1

MYCN = tested on: MYCN
In short: as §1

Row | Sequence | 3' UTR reporter interaction score (HRAS) | 3' UTR reporter interaction score (RB1) | 3' UTR reporter interaction score (MYT1L) | 3' UTR reporter interaction score (BRCA2) | 3' UTR reporter interaction score (ZEB2) | 3' UTR reporter interaction score (TP53) | 3' UTR reporter interaction score (MYC) | 3' UTR reporter interaction score (PHF6) | 3' UTR reporter interaction score (FBXW7) | 3' UTR reporter interaction score (EZH2) | 3' UTR reporter interaction score (NOTCH1) | 3' UTR reporter interaction score (PHOX2B) | 3' UTR reporter interaction score (MYB) | 3' UTR reporter interaction score (MYCN)
1 | GUGCCGCCAUCUUUUGAGUGU | -0.278 | 0.47 | -0.378 | -0.313 | -1.72 | 0.183 | 1.02 | 1.8 | -3.5 | 1.03 | -0.278 | -0.654 | 0.102 | 0.415
2 | GUGCCUACUGAGCUGAUAUCAGU | -0.972 | 0.454 | -1.1 | 0.244 | -0.6 | 0.396 | 0.239 | -1.31 | 0.26 | 0.242 | -1.95 | 1.18 | 0.61 | 0.559
3 | GUGGCUGCACUCACUUCCUUC | -0.434 | 1.44 | 1.48 | -1.87 | -0.491 | -1.37 | 0.00108 | 1.53 | 0.899 | 0.166 | 0.486 | -0.165 | 0.056 | 1.8
4 | GUGUCUGCUUCCUGUGGGA | -2.48 | -0.362 | 0.553 | 0.42 | 0.24 | 0.286 | -0.0744 | 0.326 | 0.999 | -0.0979 | -0.363 | -0.344 | -0.0781 | -0.382
5 | GUGUCUUUUGCUCUGCAGUCA | 2.01 | 0.189 | 0.207 | -0.493 | -1.45 | 0.375 | 1.06 | -0.433 | -1.58 | 1.94 | -1.08 | -2.8 | -0.175 | 0.0597
6 | GUGUGUGGAAAUGCUUCUGC | 0.713 | 1.07 | -1.13 | -2.78 | -1.28 | -0.707 | -0.259 | 1.54 | -0.236 | 1.67 | -0.133 | -1.13 | 1.87 | 1.7
7 | GUUCAAAUCCAGAUCUAUAAC | -0.14 | -0.538 | -0.972 | 0.0735 | 0.383 | 0.149 | -0.205 | -0.553 | 1.03 | -0.256 | -0.33 | 1.14 | -0.548 | -0.012
8 | GUUCUCCCAACGUAAGCCCAGC | 0.00988 | -0.277 | 0.882 | -0.8 | -0.194 | 0.732 | -0.299 | 0.685 | 1.08 | 0.22 | -0.479 | 1.74 | -4.37 | 0.962
9 | GUUGGAGGAUGAAAGUACGGAGUGAU | -0.155 | 0.55 | -0.433 | -1.61 | 0.0694 | -1.24 | -0.154 | 0.571 | 1.07 | 0.25 | -0.207 | 1.82 | 0.331 | 0.4
10 | GUUGUGUCAGUUUAUCAAAC | 0.822 | -1.51 | -0.86 | -0.269 | -0.154 | 0.224 | 0.0323 | -1.91 | -0.0228 | 0.353 | -0.822 | -0.364 | 0.442 | 0.0505
11 | GUUUGCACGGGUGGGCCUUGUCU | -1.1 | -0.0813 | 2.21 | 0.0623 | -1.23 | -0.225 | -0.328 | 0.29 | -0.619 | -0.233 | 0.297 | 0.0301 | -0.536 | 1.09
12 | UAAACGUGGAUGUACUUGCUUU | -0.799 | 0.153 | -0.58 | 0.489 | 0.846 | 0.196 | -1.34 | -1.71 | 0.998 | 0.463 | 0.553 | -0.628 | -0.172 | -0.319
13 | UAAAGCUAGAUAACCGAAAGU | 0.407 | 0.722 | -1.97 | 1.05 | -0.694 | 0.374 | 0.416 | -0.609 | -0.801 | 0.346 | 1.01 | 0.965 | 0.558 | -1.46
14 | UAAAGUAAAUAUGCACCAAAA | 0.372 | -0.322 | -0.0291 | -0.0915 | -0.265 | 0.703 | 0.043 | -0.814 | -0.197 | 0.367 | 0.429 | 1.69 | -0.21 | -0.59
15 | UAAAGUGCUGACAGUGCAGAU | 0.312 | -0.838 | -2.37 | 0.319 | 0.619 | -0.0101 | 0.528 | 0.442 | -0.356 | -0.906 | 0.373 | 0.0581 | -0.631 | -0.735
16 | UAAAUCCCAUGGUGCCUUCUCCU | -0.598 | 0.989 | -0.319 | 0.0242 | -0.698 | 0.00864 | 0.0891 | 1.14 | -0.794 | 0.24 | 0.16 | 0.298 | -0.131 | 1.04
17 | UAACACUGUCUGGUAAAGAUGG | 0.0521 | 0.257 | -4.79 | -0.392 | -7.02 | 0.617 | 0.0647 | -1.93 | -0.104 | -0.173 | -0.447 | -0.774 | 0.229 | 0.21
18 | UAACACUGUCUGGUAACGAUGU | 0.337 | 0.104 | -5.06 | 0.575 | -5.66 | -0.247 | -0.268 | 1.8 | 0.00413 | -0.274 | 0.173 | -0.223 | 0.219 | -0.465
19 | UAACAGUCUACAGCCAUGGUCG | 0.64 | -1.41 | 1 | -0.186 | -0.631 | -1.07 | 0.473 | -0.351 | -0.629 | 1.32 | -0.392 | -0.125 | 0.1 | 0.783
